Measurements published in ChEMBL document CHEMBL1151634, “Phytochemical and biological screening of Saudi medicinal plants, Part 6. Isolation of 2 alpha-hydroxyalantolactone the antileukemic principle of Francoeuria crispa” (1984).
In brackets after ≈: the same amount, converted by molar mass.

What was measured:
Type in all cases: functional
[1] = system: P388; assay: In vivo cytotoxicity against mouse P388 cells at 75 mg/kg relative to control
[2] = system: Staphylococcus aureus; assay: Antibacterial activity against Staphylococcus aureus NCTC 6571 after overnight incubation by tube dilution method
[3] = Cytotoxicity against mouse 9PS cells
[4] = Cytotoxicity against human 9KB cells

SMILES: C=C1C(=O)O[C@@H]2C[C@@]3(C)C[C@@H](O)C[C@H](C)C3=C[C@H]12
- T/C [1]: 123%
- MIC [2]: 0.625 µg/mL (≈ 2.52 µM)
- Activity [3]: 2 µg/mL
- Activity [4]: 2 ×10⁻¹ ug/ml
